According to article PMC7534258, “Novel temporin L antimicrobial peptides: promoting self-assembling by lipidic tags to tackle superbugs” (Journal of Enzyme Inhibition and Medicinal Chemistry, 2020):
In brackets after ≈: the same amount, converted by molar mass. Where a SMILES comes first, the peptide text is derived from it. [ ]: non-standard residue; d: D form. The star is where a group is joined. Heptanoyl = CCCCCCC(=O)*; Pentanoyl = CCCCC(=O)*

What was measured:
[1] = system: P. aeruginosa ATCC 27853; test: Broth microdilution MIC, reference strain; type: cell-based, Pseudomonas aeruginosa; settings: for MIC: Pseudomonas aeruginosa, ATCC27853, antibiotics, 16–18 h at 37 °C, read-out: Antimicrobial activity (MIC) P. aeruginosa ATCC 27853
Description: (§1) Staphylococcus aureus ATCC 25923, Pseudomonas aeruginosa ATCC 27853 and Klebsiella pneumoniae ATCC BAA-1705 (carbapenemase producer) were obtained from the American Type Culture Collection (Rockville, MD).
(§2) Identification was performed by sub-culturing on Tryptic Soy Agar (TSA, Becton Dickinson) and by biochemical characterisation using the Vitek II system (Biomerieux). The antimicrobial susceptibility testing of all isolates was determined using Vitek II system and results were interpreted according to European Committee on Antimicrobial Susceptibility Testing (EUCAST version 9.0, 2019). P. aeruginosa was cultured in Brain Heart Infusion broth (BHI, OXOID), S. aureus and K. pneumoniae were cultured in Tryptic Soya broth (TSB, OXOID), under aerobic conditions at 37 °C, for 24 h on an orbital shaker at 200 rpm.
(§3) Minimal inhibitory concentrations (MIC) of all the peptides were determined in Mueller–Hinton medium by the broth microdilution assay, following the procedure already described[22]^,[34]. The compounds were added to bacterial suspension in each well yielding a final cell concentration of 1 × 10^6 CFU/ml and a final compound concentration ranging from 0.78 to 100 µM. Negative control wells were set to contain bacteria in Mueller–Hinton broth plus the amount of vehicle (ethanol) used to dilute each compound. Positive controls included vancomycin (2 µg/ml), tobramycin (4 µg/ml), gentamycin (4 µg/ml), and imipenem (8 µg/ml).

[2] = system: S. aureus ATCC 25923; test: microbe, parasite or virus in culture; settings: for MIC: Staphylococcus aureus, ATCC25923, read-out: Antimicrobial activity (MIC) S. aureus ATCC 25923
Description: as §1, §2, §3

[3] = system: K. pneumoniae ATCC BAA-1705; test: Broth microdilution MIC, reference strain; type: cell-based, Klebsiella pneumoniae; settings: for MIC: Klebsiella pneumoniae, ATCCBAA1705, antibiotics, 16–18 h at 37 °C, read-out: Antimicrobial activity (MIC) K. pneumoniae ATCC BAA-1705
Description: as §1, §2, §3

[4] = system: Sa2; test: microbe, parasite or virus in culture; settings: Staphylococcus aureus, MRSA, read-out: Antimicrobial activity (MIC) Sa2
Description: (§4) Clinical strains of P. aeruginosa (Pa1, Pa2 and Pa3), K. pneumoniae (KpCR1, KpCR2 and KpCR3), and S. aureus (Sa1, Sa2 and Sa3) were isolated from bloodstream or pulmonary infections, and belong to a collection of bacterial strains established between 2010 and 2018 at the Department of Molecular Medicine and Medical Biotechnologies (University Federico II, Naples) for research use.
as §2, §3

[5] = system: Sa1; test: microbe, parasite or virus in culture; settings: Staphylococcus aureus, MRSA, read-out: Antimicrobial activity (MIC) Sa1
Description: as §4, §2, §3

[6] = system: Sa3; test: microbe, parasite or virus in culture; settings: Staphylococcus aureus, MRSA, read-out: Antimicrobial activity (MIC) Sa3
Description: as §4, §2, §3

[7] = system: KpCR3; test: microbe, parasite or virus in culture; settings: Klebsiella pneumoniae, read-out: Antimicrobial activity (MIC) KpCR3
Description: as §4, §2, §3

[8] = system: Pa3; test: microbe, parasite or virus in culture; settings: Pseudomonas aeruginosa, read-out: Antimicrobial activity (MIC) Pa3
Description: as §4, §2, §3

[9] = system: Pa2; test: microbe, parasite or virus in culture; settings: Pseudomonas aeruginosa, read-out: Antimicrobial activity (MIC) Pa2
Description: as §4, §2, §3

[10] = system: KpCR1; test: microbe, parasite or virus in culture; settings: Klebsiella pneumoniae, read-out: Antimicrobial activity (MIC) KpCR1
Description: as §4, §2, §3

[11] = system: KpCR2; test: microbe, parasite or virus in culture; settings: Klebsiella pneumoniae, read-out: Antimicrobial activity (MIC) KpCR2
Description: as §4, §2, §3

[12] = system: Pa1; test: microbe, parasite or virus in culture; settings: Pseudomonas aeruginosa, PA1, read-out: Antimicrobial activity (MIC) Pa1
Description: as §4, §2, §3

[13] = system: sheep red blood cells; type: cell-based; settings: red cells of sheep, 24 h
Description: Sheep red blood cells were purchased from OXOID, SR0051D.
The haemolytic assay was conducted following the procedure described. […] Controls were erythrocytes treated with vehicle (water).

[14] = system: HaCaT cells; settings: 24 h, at 6.25 µM
Description: The human immortalised keratinocytes HaCaT cells (AddexBio, San Diego, CA, USA) were cultured in Dulbecco’s modified Eagle’s medium containing 4 mM glutamine (DMEMg), supplemented with 10% heat-inactivated foetal bovine serum (FBS) and 0.1 mg/ml of penicillin and streptomycin, at 37 °C and 5% CO2, in 25 cm^2 or 75 cm^2 flasks[33].
The colorimetric MTT assay was carried out to measure cellular metabolic activity in terms of cell viability[33]^,[36]. Viable cells are able to reduce, by active mitochondrial dehydrogenases, the yellow salt MTT to purple formazan crystals. Briefly, 4 × 10^4 HaCaT cells, suspended in DMEMg supplemented with 2% FBS, were plated in each well of a 96-well microtiter plate. After overnight incubation, at 37 °C in a 5% CO2 atmosphere, keratinocytes were treated for 24 h with fresh serum-free medium containing the peptides 3B and C at concentrations ranging from 3.12 µM to 25 µM. Afterward, the culture medium was replaced with Hank’s buffer supplemented with 0.5 mg/ml MTT and the plate was incubated at 37 °C and 5% CO2 for 4 h. At the end, acidified isopropanol was employed to dissolve the formazan crystals. Cell viability was calculated, with respect to cells not treated with peptide, by absorbance measurements at 570 nm using a microplate reader (Infinite M200; Tecan, Salzburg, Austria)[33]. […]

[15] = Critical aggregation concentration, Nile red fluorescence; type: physicochemical; settings: aqueous solution, pH 7, Nile red, 1–200 µM peptide
Description: The solvatochromic fluorescent probe Nile red is widely used to determine the CAC of self-assembling peptides. […] Since Nile red is poorly soluble in water, there is a large preference to partition aggregates, which offer hydrophobic binding sites. Initially, 1 mM methanolic Nile red was prepared. Then, the methanolic Nile red was diluted with water in order to have a final concentration of 500 nM (solution A). The peptides 1B, 2B, 3B, C, were prepared as follows[39]: peptide stock solutions (0.4 mM) were prepared by dissolving the single peptides in water (1B, C) or tetrahydrofuran (3B, 2B) and sonicating for 15 min. Different aliquots were taken to prepare solutions of each peptide at different concentrations (1, 5, 10, 15, 20, 30, 50, 100 and 200 µM). Then, all solutions were diluted with water, sonicated for 15 min and freeze-dried. Finally, the peptide powders were dissolved with the right volume of solution A and allowed to stand in the dark place for 1 h before measurement. Emission spectra for each solution were measured by a Cary Eclipse Varian spectrometer. Spectra were taken between 570 and 700 nm at a slit width of 5 nm, using an excitation wavelength of 550 nm and a 10 nm slit width. The measurements were performed in triplicate. The data were analysed by plotting the maximum emission fluorescence corresponding wavelength (y) as a function of peptide concentration (x) and fitting with the sigmoidal Boltzmann equation: y=A1+A2/1+e^(x−x0/Δx)+A2 where the variables A1 and A2 correspond to the upper and lower limits of the sigmoid, x0 is the inflection point of the sigmoid and Δx is the parameter, which characterises the steepness of the function. The sigmoidal plot allows calculating the CAC value at x0.

[16] = ANTS/DPX leakage assay; settings: ANTS/DPX-loaded LUVs, Gram-positive and Gram-negative mimicking
Description: Large unilamellar vesicles (LUVs) and small unilamellar vesicles (SUVs) consisting of DOPG/CL (58/42 ratio in moles) and DOPG/DOPE/CL (63/23/12 ratio in moles), mimic the Gram-positive membrane and Gram-negative membrane, respectively. LUVs were prepared using the extrusion method as previously described. In particular, first lipid films were prepared by dissolving an appropriate amount of lipids in chloroform and fluorescent probes were added when necessary, then dried under a nitrogen gas stream and freeze-dried overnight. In all experiments, we used a final lipid concentration of 0.1 mM. For fluorescence experiments, buffer was added to dry lipid films and vortexed for 1 h; then the lipid suspension was freeze-thawed 6 times and extruded 10 times through polycarbonate membranes with 0.1 µm diameter pores to obtain LUVs. For circular dichroism measurements, peptide samples in SUVs were prepared as reported in the following protocol. Lipids were dissolved in chloroform and added to an equal volume of peptide solution dissolved in TFE containing appropriate peptide concentration. The samples were vortexed and lyophilised overnight. The dry samples were rehydrated with phosphate buffer 5 mM, pH 7.4 for 1 h and sonicated for 30 min.
The ANTS/DPX leakage assay was used to measure the ability of peptide to permeabilise and induce leakage of encapsulated dyes. After lipid films were prepared as previously described, ANTS (12.5 mM) and DPX (45 mM) were dissolved in 2 ml water, were added to lipid films and then lyophilised overnight. The lipid films with encapsulated ANTS and DPX were hydrated with PBS 1X buffer, vortexed for 1 h and then treated to obtain LUVs. The non-encapsulated ANTS and DPX were removed by gel filtration using a Sephadex G-50 column (1.5 cm × 10 cm) at room temperature. To start up the leakage experiment, a 2 mM peptide stock solution was prepared and LUVs were titrated with the peptide. Samples were excited at 385 nm (slit width, 5 nm) and fluorescence emission was recorded at 512 nm (slit width, 5 nm). After the addition of peptide, we evaluated leakage of encapsulated ANTS through a change in fluorescence spectra of ANTS and DPX. In particular, leakage is associated to an increase in ANTS fluorescence at 512 nm. Complete release of ANTS was obtained by using 0.1% Triton X, which caused the total destruction of liposomes. The percentage of leakage was calculated as % leakage =(Fi−F0)/(Ft−F0), where F0 represents the fluorescence of intact LUVs before the addition of peptide, and Fi and Ft denote the intensities of the fluorescence achieved after peptide and Triton-X treatment, respectively.

SMILES	MIC [1] [µg/mL]	MIC [2] [µg/mL]	MIC [3] [µg/mL]	MIC [4] [µg/mL]	MIC [5] [µg/mL]	MIC [6] [µg/mL]	MIC [7] [µg/mL]	MIC [8] [µg/mL]	MIC [9] [µg/mL]	MIC [10] [µg/mL]	MIC [11] [µg/mL]	MIC [12] [µg/mL]	haemolytic potency [13]	Antimicrobial activity (MIC) P. aeruginosa ATCC 27853 [1] [µM]	reduction in cell viability [14]	CAC (critical aggregation concentration) [15] [µM]	Antimicrobial activity (MIC) S. aureus ATCC 25923 [2] [µM]	Antimicrobial activity (MIC) K. pneumoniae ATCC BAA-1705 [3] [µM]	membrane leakage ability (in words) [16]
NC[C@H]1O[C@H](O[C@H]2[C@H](O)[C@@H](O[C@H]3O[C@H](CO)[C@@H](O)[C@H](N)[C@H]3O)[C@H](N)C[C@@H]2N)[C@H](N)C[C@@H]1O [Tobramycin]	4 (≈ 8.56 µM)	1 (≈ 2.14 µM)	> 4	< 1	1 (≈ 2.14 µM)	1 (≈ 2.14 µM)	> 4	4 (≈ 8.56 µM)	4 (≈ 8.56 µM)	2 (≈ 4.28 µM)	2 (≈ 4.28 µM)	4 (≈ 8.56 µM)							
CCCCCCC(=O)N[C@@H](Cc1ccccc1)C(=O)N[C@H](C(=O)N1CCC[C@H]1C(=O)N[C@@H](Cc1c[nH]c2ccccc12)C(=O)N[C@@H](Cc1ccccc1)C(=O)N[C@@H](CO)C(=O)N[C@@H](CCCCN)C(=O)N[C@@H](Cc1ccccc1)C(=O)N[C@H](CC(C)C)C(=O)N[C@H](CCCCN)C(=O)N[C@@H](CCCNC(=N)N)C(=O)N[C@H](C(=O)N[C@@H](CC(C)C)C(N)=O)[C@@H](C)CC)C(C)C [Compound 3B, CH3(CH2)5CO-Phe-Val-Pro-Trp-Phe-Ser-Lys-Phe-DLeu-DLys-Arg-Ile-Leu-NH2] (Heptanoyl-FVPWFSKF[dL][dK]RIL-NH2)													over 50%	25	about 50%	9.33	3.12	50	highest leakage ability
CCCCC(=O)N[C@@H](Cc1ccccc1)C(=O)N[C@H](C(=O)N1CCC[C@H]1C(=O)N[C@@H](Cc1c[nH]c2ccccc12)C(=O)N[C@@H](Cc1ccccc1)C(=O)N[C@@H](CO)C(=O)N[C@@H](CCCCN)C(=O)N[C@@H](Cc1ccccc1)C(=O)N[C@H](CC(C)C)C(=O)N[C@H](CCCCN)C(=O)N[C@@H](CCCNC(=N)N)C(=O)N[C@H](C(=O)N[C@@H](CC(C)C)C(N)=O)[C@@H](C)CC)C(C)C [Compound 2B, CH3(CH2)3CO-Phe-Val-Pro-Trp-Phe-Ser-Lys-Phe-DLeu-DLys-Arg-Ile-Leu-NH2] (Pentanoyl-FVPWFSKF[dL][dK]RIL-NH2)														50		20.9	12.5	50	highest leakage ability
CNC(C)C1CCC(N)C(OC2C(N)CC(N)C(OC3OCC(C)(O)C(NC)C3O)C2O)O1 (stereo not drawn) [Gentamicin]	4 (≈ 8.38 µM)	1 (≈ 2.09 µM)	4 (≈ 8.38 µM)	< 1	< 1	< 1	1 (≈ 2.09 µM)	> 4	> 4	1 (≈ 2.09 µM)	> 8	> 4							
C[C@@H](O)[C@H]1C(=O)N2C(C(=O)O)=C(SCCN=CN)C[C@H]12 [Imipenem]	4 (≈ 13.4 µM)	0.5 (≈ 1.67 µM)	> 8	> 8	8 (≈ 26.7 µM)	> 8	> 8	> 4	> 4	> 8	> 8	> 4							
